Source: patent publication US9512111B2, “N-sulfonylated tetrahydroquinolines and related bicyclic compounds for inhibition of RORγ activity and the treatment of disease” (Lycera Corporation, priority 2010, dated 2016)

Target: T1, RORγ-LBD (Homo sapiens, UniProt P51449)
T1 construct: HIS-tagged RORγ-LBD was recombinantly expressed in SF9 cells; made in house; host or cells: SF9 cells (baculovirus); unpurified lysate
T1 sequence (P51449 269-508 limits assumed): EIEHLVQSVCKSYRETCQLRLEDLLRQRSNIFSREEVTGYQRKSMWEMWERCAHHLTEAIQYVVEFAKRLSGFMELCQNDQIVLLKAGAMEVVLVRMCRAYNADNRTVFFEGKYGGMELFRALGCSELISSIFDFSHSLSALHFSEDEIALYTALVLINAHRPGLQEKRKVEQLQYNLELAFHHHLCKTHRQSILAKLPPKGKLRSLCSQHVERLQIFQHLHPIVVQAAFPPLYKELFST
Experiment: RORγ-Ligand Binding Domain TR-FRET Assay
Type: biochemical
Method: HIS-tagged RORγ-LBD was recombinantly expressed in SF9 cells using a baculovirus expression system. The protein was not purified. Cells were lysed and the lysate was used as a source for RORγ-LBD for the assay. A 1:80 dilution of RORγ-LBD lysate in assay buffer (25 mM HEPES pH 7.0, 100 mM NaCl, 0.01% Tween, 0.1% BSA) was prepared and 5 μL was added to each well (RORγ-LBD final concentration ˜10 nM). Control wells received lysate from SF9 cells not expressing RORγ-LBD.
Compounds to be tested were diluted to 100× final test concentration in DMSO and further diluted to 4× final test concentration using assay buffer to provide the test compound mixture. An aliquot (5 μL) of the test compound mixture was added to each well.
A 4× stock of biotinylated-LXXLL peptide from SRC1-2 (Biotin-[…]) was prepared in assay buffer and a 5 μL aliquot added to each well (450 nM final concentration). A 4× solution of europium tagged anti-HIS antibody (2 nM final concentration) and APC conjugated streptavidin (60 nM final concentration) were prepared and a 5 μL aliquot added to each well.
The final assay mixture was incubated for 4 hours to overnight, and the fluorescence signal was measured on an Envision plate reader: (Excitation filter=340 nm; APC emission=665 nm; Europium emission=615 nm; dichroic mirror=D400/D630; delay time=100 μs, integration time=200 μs).
IC50 values for test compounds were calculated from the quotient of the fluorescence signal at 665 nm divided by the fluorescence signal at 615 nm using GraphPad Prism software.

O=C(Nc1ccc2cnn(S(=O)(=O)c3cccc(Cl)c3)c2c1)c1c(F)cccc1Cl [Compound V-53]
IC50 (Table 8, indazoles): < 15 µM

Cc1cccc(S(=O)(=O)n2ncc3ccc(NC(=O)Cc4ccc(F)c(F)c4)cc32)c1 [Compound V-20]
IC50 (Table 8, indazoles): < 15 µM

O=C(Nc1ccc2cnn(S(=O)(=O)c3ccccc3)c2c1)c1c(F)cccc1Cl [Compound V-159]
IC50 (Table 8, indazoles): < 15 µM

N#Cc1cccc(S(=O)(=O)N2C[C@@H](CO)Oc3ccc(NC(=O)c4c(F)cccc4C(F)(F)F)cc32)c1 [VI-57]
IC50 (benzoxazines, Table 9): < 15 µM

COc1ccc(S(=O)(=O)n2ncc3ccc(NC(=O)c4c(F)cccc4Cl)cc32)cc1F [Compound V-164]
IC50 (Table 8, indazoles): < 15 µM

O=C(Nc1ccc2cnn(S(=O)(=O)c3cccc(Cl)c3)c2c1)c1c(Cl)cccc1Cl [Compound V-72]
IC50 (Table 8, indazoles): < 15 µM

O=C(Nc1ccc2cnn(S(=O)(=O)c3cccc(OC(F)(F)F)c3)c2c1)c1c(Cl)cccc1C(F)(F)F [Compound V-41]
IC50 (Table 8, indazoles): < 15 µM

O=C(Nc1ccc2cnn(S(=O)(=O)c3ccc(Cl)cc3)c2c1)c1c(F)cccc1Cl [Compound V-156]
IC50 (Table 8, indazoles): < 15 µM

O=C(Nc1ccc2cnn(S(=O)(=O)c3cccc(OC(F)F)c3)c2c1)c1c(Cl)cccc1C(F)(F)F [Compound V-35]
IC50 (Table 8, indazoles): < 15 µM

Cc1ncc(CC(=O)Nc2ccc3cnn(S(=O)(=O)c4cccc(C(C)(C)C)c4)c3c2)s1 [Compound V-2]
IC50 (Table 8, indazoles): < 15 µM

Cc1c(S(=O)(=O)n2ncc3ccc(NC(=O)c4c(F)cccc4Cl)cc32)cnn1C [Compound V-110]
IC50 (Table 8, indazoles): < 15 µM

CC(=O)c1cccc(S(=O)(=O)n2ncc3ccc(NC(=O)Cc4ccc(F)c(F)c4)cc32)c1 [Compound V-19]
IC50 (Table 8, indazoles): < 15 µM

C[C@H]1CN(S(=O)(=O)c2cccc(C#N)c2)c2cc(NC(=O)c3c(F)cccc3Cl)ccc2O1 [VI-6]
IC50 (benzoxazines, Table 9): < 15 µM

O=C(Nc1ccc2cnn(S(=O)(=O)C3CC3c3ccccc3)c2c1)c1c(F)cccc1Cl (centres unmarked) [Compound V-105]
IC50 (Table 8, indazoles): < 15 µM

O=C(Nc1ccc2cnn(S(=O)(=O)c3cccc(OC(F)F)c3)c2c1)c1c(F)cccc1F [Compound V-58]
IC50 (Table 8, indazoles): < 15 µM

C[C@H](C(=O)Nc1ccc2c(c1)N(S(=O)(=O)c1ccc(F)cc1)C[C@H](C)O2)c1ccccc1 [VI-133]
IC50 (benzoxazines, Table 9): < 15 µM

O=C(Cc1ccc(Cl)cc1)Nc1ccc2c(c1)N(S(=O)(=O)c1ccc(F)c(F)c1)C[C@@H](CO)O2 [VI-71]
IC50 (benzoxazines, Table 9): < 15 µM

COC(=O)c1ccc(S(=O)(=O)n2ncc3ccc(NC(=O)c4c(F)cccc4Cl)cc32)o1 [Compound V-151]
IC50 (Table 8, indazoles): < 15 µM

C[C@H](O)[C@H]1CN(S(=O)(=O)c2ccc(F)cc2)c2cc(NC(=O)c3c(F)cccc3Cl)ccc2O1 [VI-23]
IC50 (benzoxazines, Table 9): < 15 µM

Cc1nn(C(F)F)cc1S(=O)(=O)n1ncc2ccc(NC(=O)Cc3cc(F)cc(F)c3)cc21 [Compound V-14]
IC50 (Table 8, indazoles): < 15 µM

CC(C)(C)c1cccc(S(=O)(=O)n2ncc3ccc(NC(=O)c4c(Cl)cccc4C(F)(F)F)cc32)c1 [Compound V-34]
IC50 (Table 8, indazoles): < 15 µM

COc1cccc(S(=O)(=O)n2ncc3ccc(NC(=O)c4c(F)cccc4F)cc32)c1 [Compound V-62]
IC50 (Table 8, indazoles): < 15 µM

CC(=O)c1cccc(S(=O)(=O)n2ncc3ccc(NC(=O)Cc4ccc(F)cc4)cc32)c1 [Compound V-24]
IC50 (Table 8, indazoles): < 15 µM

O=C(Nc1ccc2cnn(S(=O)(=O)c3ccc(Cl)s3)c2c1)c1c(F)cccc1Cl [Compound V-96]
IC50 (Table 8, indazoles): < 15 µM

O=C(Nc1ccc2cnn(S(=O)(=O)Cc3cccc(Cl)c3)c2c1)c1c(F)cccc1Cl [Compound V-86]
IC50 (Table 8, indazoles): < 15 µM

O=C(Nc1ccc2cnn(S(=O)(=O)c3cccc(OC(F)(F)F)c3)c2c1)c1c(F)cccc1C(F)(F)F [Compound V-50]
IC50 (Table 8, indazoles): < 15 µM

O=C(Nc1ccc2cnn(S(=O)(=O)c3cccnc3)c2c1)c1c(F)cccc1Cl [Compound V-94]
IC50 (Table 8, indazoles): < 15 µM

O=C(Nc1ccc2cnn(S(=O)(=O)c3ccc(F)c(Cl)c3)c2c1)c1c(F)cccc1Cl [Compound V-76]
IC50 (Table 8, indazoles): < 15 µM

O=C(Nc1ccc2c(c1)N(S(=O)(=O)c1ccc(F)cc1)C(CO)CO2)c1c(F)cccc1Cl (centres unmarked) [Compound 23, 2-Chloro-6-fluoro-N-[4-(4-fluorobenzenesulfonyl)-3-hydroxymethyl-3,4-dihydro-2H-benzo[1,5]oxazin-6-yl]benzamide]
IC50 (benzoxazines, Table 9): < 15 µM

CC(=O)Nc1ccc(S(=O)(=O)n2ncc3ccc(NC(=O)c4c(F)cccc4Cl)cc32)cc1Cl [Compound V-149]
IC50 (Table 8, indazoles): < 15 µM

COc1cccc(S(=O)(=O)n2ncc3ccc(NC(=O)Cc4cc(F)cc(F)c4)cc32)c1 [Compound V-16]
IC50 (Table 8, indazoles): < 15 µM

CC(C)(C)c1cccc(S(=O)(=O)n2ncc3ccc(NC(=O)Cc4ccc(Cl)cc4)cc32)c1 [Compound V-28]
IC50 (Table 8, indazoles): < 15 µM

O=C(Cc1ccc(F)cc1)Nc1ccc2c(c1)N(S(=O)(=O)c1ccc(F)c(F)c1)C[C@@H](CO)O2 [VI-74]
IC50 (benzoxazines, Table 9): < 15 µM

Cc1cccc(S(=O)(=O)n2ncc3ccc(NC(=O)c4c(F)cccc4F)cc32)c1 [Compound V-60]
IC50 (Table 8, indazoles): < 15 µM

O=C(Nc1ccc2cnn(S(=O)(=O)c3ccc(F)c(C(F)(F)F)c3)c2c1)c1c(Cl)cccc1C(F)(F)F [Compound V-33]
IC50 (Table 8, indazoles): < 15 µM

COc1ccc(S(=O)(=O)n2ncc3ccc(NC(=O)c4c(F)cccc4Cl)cc32)cc1 [Compound V-157]
IC50 (Table 8, indazoles): < 15 µM

Cc1nn(C(F)F)cc1S(=O)(=O)n1ncc2ccc(NC(=O)c3c(F)cccc3F)cc21 [Compound V-13]
IC50 (Table 8, indazoles): < 15 µM

CC(C)(C)c1cccc(S(=O)(=O)n2ncc3ccc(NC(=O)c4c(Cl)cccc4Cl)cc32)c1 [Compound V-67]
IC50 (Table 8, indazoles): < 15 µM

Cc1ccc(C)c(S(=O)(=O)n2ncc3ccc(NC(=O)c4c(F)cccc4Cl)cc32)c1 [Compound V-117]
IC50 (Table 8, indazoles): < 15 µM

Cn1cc(S(=O)(=O)n2ncc3ccc(NC(=O)c4c(F)cccc4Cl)cc32)cn1 [Compound V-112]
IC50 (Table 8, indazoles): < 15 µM

CC(=O)c1cccc(S(=O)(=O)n2ncc3ccc(NC(=O)Cc4cc(F)cc(F)c4)cc32)c1 [Compound V-15]
IC50 (Table 8, indazoles): < 15 µM

CC(C)(C)c1cccc(S(=O)(=O)n2ncc3ccc(NC(=O)c4c(F)cccc4Cl)cc32)c1 [Compound V-106]
IC50 (Table 8, indazoles): < 15 µM

Cc1nn(C)c(C)c1S(=O)(=O)n1ncc2ccc(NC(=O)c3c(F)cccc3Cl)cc21 [Compound V-90]
IC50 (Table 8, indazoles): < 15 µM

COc1cccc(S(=O)(=O)n2ncc3ccc(NC(=O)c4c(F)cccc4Cl)cc32)c1 [Compound V-148]
IC50 (Table 8, indazoles): < 15 µM

O=C(Nc1ccc2cnn(S(=O)(=O)c3cccc(OC(F)(F)F)c3)c2c1)c1c(F)cccc1Cl [Compound V-54]
IC50 (Table 8, indazoles): < 15 µM

CC(=O)c1cccc(S(=O)(=O)n2ncc3ccc(NC(=O)c4c(Cl)cccc4Cl)cc32)c1 [Compound V-69]
IC50 (Table 8, indazoles): < 15 µM

O=C(Nc1ccc2cnn(S(=O)(=O)c3cc(Cl)ccc3F)c2c1)c1c(F)cccc1Cl [Compound V-169]
IC50 (Table 8, indazoles): < 15 µM

O=C(Nc1ccc2cnn(S(=O)(=O)c3cccc(OC(F)F)c3)c2c1)c1c(Cl)cccc1Cl [Compound V-68]
IC50 (Table 8, indazoles): < 15 µM

COc1ccc(C)cc1S(=O)(=O)n1ncc2ccc(NC(=O)c3c(F)cccc3Cl)cc21 [Compound V-78]
IC50 (Table 8, indazoles): < 15 µM

Cc1cc(C)cc(S(=O)(=O)n2ncc3ccc(NC(=O)c4c(F)cccc4Cl)cc32)c1 [Compound V-123]
IC50 (Table 8, indazoles): < 15 µM

O=C(Nc1ccc2cnn(S(=O)(=O)c3cccc(OC(F)(F)F)c3)c2c1)c1c(Cl)cccc1Cl [Compound V-74]
IC50 (Table 8, indazoles): < 15 µM

C[C@H]1CN(S(=O)(=O)c2ccc(F)cc2)c2cc(NC(=O)Cc3ccncc3)ccc2O1 [VI-130]
IC50 (benzoxazines, Table 9): < 15 µM

Cc1cccc(S(=O)(=O)n2ncc3ccc(NC(=O)c4c(Cl)cccc4C(F)(F)F)cc32)c1 [Compound V-37]
IC50 (Table 8, indazoles): < 15 µM

O=C(Cc1ccc(Cl)cc1)Nc1ccc2c(c1)N(S(=O)(=O)c1ccc(Cl)cc1)C[C@@H](CO)O2 [VI-50]
IC50 (benzoxazines, Table 9): < 15 µM

CC(=O)c1cccc(S(=O)(=O)n2ncc3ccc(NC(=O)c4c(F)cccc4Cl)cc32)c1 [Compound V-122]
IC50 (Table 8, indazoles): < 15 µM

Cc1c(F)cccc1S(=O)(=O)n1ncc2ccc(NC(=O)c3c(F)cccc3Cl)cc21 [Compound V-102]
IC50 (Table 8, indazoles): < 15 µM

O=C(Nc1ccc2cnn(S(=O)(=O)c3cccc(Cl)c3)c2c1)c1c(F)cccc1F [Compound V-61]
IC50 (Table 8, indazoles): < 15 µM

O=C(Nc1ccc2cnn(S(=O)(=O)c3c(F)cccc3F)c2c1)c1c(F)cccc1Cl [Compound V-128]
IC50 (Table 8, indazoles): < 15 µM

O=C(Nc1ccc2cnn(S(=O)(=O)c3cccc(C(F)(F)F)c3)c2c1)c1c(Cl)cccc1C(F)(F)F [Compound V-42]
IC50 (Table 8, indazoles): < 15 µM

C[C@H]1CN(S(=O)(=O)c2cccc(C#N)c2)c2cc(NC(=O)c3c(F)cccc3C(F)(F)F)ccc2O1 [VI-4]
IC50 (benzoxazines, Table 9): < 15 µM

CC(=O)c1cccc(S(=O)(=O)n2ncc3ccc(NC(=O)c4c(Cl)cccc4C(F)(F)F)cc32)c1 [Compound V-36]
IC50 (Table 8, indazoles): < 15 µM

NCC1CN(S(=O)(=O)c2ccc(F)cc2)c2cc(NC(=O)c3c(F)cccc3Cl)ccc2O1 (centres unmarked) [VI-31]
IC50 (benzoxazines, Table 9): < 15 µM
